According to ChEMBL document CHEMBL1150099, “An improved source of bryostatin 10, Bugula neritina from the Gulf of Aomori, Japan” (1995):
In brackets after ≈: the same amount, converted by molar mass. Activity calls are given as the source filed them. The calls are words filed in the database; no cut-off is given here.

Legend:
Echinoidea = test: Inhibition of fertilization of sea urchin egg at 1 ug/ml; assay type: functional
[1] = Inhibition of fertilized sea urchin egg cell division; assay type: functional; conditions: Echinoidea, read-out: ED50 (the source's name)
P388 = test: Cytotoxicity against mouse P388 cells; assay type: functional; conditions: read-out: ED50 (the source's name)
[2] = Increase in ACTH-induced steroidogenesis in bovine adrenocortical cells measured per 10^5 cells; assay type: functional, Bos taurus
Sperm = test: Inhibition of movement of sea urchin sperm at 1 ug/ml; assay type: functional, cell-based; conditions: Echinoidea

Compound | inhibition (Echinoidea) [%] | EC50 [1] [µg/mL] | EC50 (P388) [µg/mL] | Activity [2] [pmol/h] | Activity (Sperm)
COC(=O)/C=C1\C=C2O[C@@H](C1)C[C@H]([C@@H](C)O)OC(=O)C[C@H](O)C[C@@H]1C[C@H](OC(=O)C(C)(C)C)C(C)(C)[C@](O)(C[C@@H]3C/C(=C/C(=O)OC)C[C@H](/C=C/C2(C)C)O3)O1 [BRYOSTATIN 17] | 100 | 0.3 (≈ 0.379 µM) |  |  | 
COC(=O)/C=C1/C[C@H]2C[C@]3(O)O[C@H](C[C@@H](O)CC(=O)O[C@@H]([C@@H](C)OC(C)=O)C[C@@H]4C/C(=C/C(=O)OC)C[C@@](O)(O4)C(C)(C)/C=C/[C@@H](C1)O2)C[C@H](OC(=O)C(C)(C)C)C3(C)C | 80 |  | 0.44 (≈ 0.517 µM) |  | 
COC(=O)/C=C1/C[C@H]2C[C@]3(O)O[C@H](C[C@@H](O)CC(=O)O[C@@H]([C@@H](C)O)C[C@@H]4C/C(=C\C(=O)OC)C[C@@](O)(O4)C(C)(C)/C=C/[C@@H](C1)O2)C[C@H](OC(=O)C(C)(C)C)C3(C)C [BRYOSTATIN 10] |  | 0.16 (≈ 0.198 µM) | 0.0018 (≈ 0.00223 µM) | 1141 | 
CCCC(=O)O[C@H](C)[C@H]1C[C@@H]2C/C(=C/C(=O)OC)C[C@@](O)(O2)C(C)(C)/C=C/[C@H]2C/C(=C\C(=O)OC)C[C@@H](C[C@]3(O)O[C@H](C[C@@H](O)CC(=O)O1)C[C@H](OC(=O)C(C)(C)C)C3(C)C)O2 | 80 |  | 0.32 (≈ 0.364 µM) |  | 
CCC(=O)O[C@H](C)[C@H]1C[C@@H]2C/C(=C/C(=O)OC)C[C@@](O)(O2)C(C)(C)/C=C/[C@H]2C/C(=C\C(=O)OC)C[C@@H](C[C@]3(O)O[C@H](C[C@@H](O)CC(=O)O1)C[C@H](OC(=O)C(C)(C)C)C3(C)C)O2 | 80 |  | 0.52 (≈ 0.601 µM) |  | Active
